Source: PMC6272155, “Plasmin Regulation through Allosteric, Sulfated, Small Molecules” (Molecules, 2015)
Entries after “also recorded” stand apart in the source; their conditions may differ. Like-named read-outs stand apart in the source and are kept apart here.

Columns and labels:
Format in all cases: biochemical
human Lys-plasmin = biological target: T1, human Lys-plasmin (Homo sapiens, UniProt P00747); assay: Direct inhibition of human Lys-plasmin, chromogenic substrate (Spectrozyme PL) hydrolysis assay; conditions: for IC50: human plasmin 20 nM, 50 mM Tris-HCl pH 7.4, 150 mM NaCl, 37 °C, Spectrozyme PL; for HS (Hill slope): logistic fit
T1 construct: purchased Haematologic Technologies (Essex Junction, VT, USA)
Description: Important to emphasize here that the potency of NSGM-based inhibitors was evaluated by measuring their IC50's (X-axis), whereas the efficacy was assessed by measuring the overall change in residual plasmin activity (%) (ΔY = YM − Y0) (Y-axis).
Direct inhibition of human Lys-plasmin was measured using a chromogenic substrate hydrolysis assay on a microplate reader (FlexStation III, Molecular Devices, Sunnyvale, CA, USA), as reported earlier. Briefly, to each well of a 96-well microplate containing 85 µL of 50 mM Tris-HCl buffer, pH 7.4, containing 150 mM NaCl, 0.1% PEG8000, and 0.02% Tween80 at 37 °C was added 5 µL potential NSGM-based inhibitor (20–100 mM aqueous solution) (or vehicle alone) and 5 µL enzyme. The final concentration of the enzyme was 20 nM. After 5 min incubation, 5 µL of 1 mM Spectrozyme PL was rapidly added and the residual enzyme activity was measured from the initial rate of increase in A405. Relative residual enzyme activity (Y) as a function of the concentration of sulfated molecule was fitted using logistic equation 1 to obtain the potency (IC50), efficacy (ΔY) and Hill slope (HS) of inhibition. In this equation, YM and Y0 are the maximal and minimal values of Y: (1) Y = Y0+YM−Y0/1+10^(log[Inhibitor]0 − logIC50) ×HS […]
In this equation, Y is the ratio of residual plasmin activity in the presence of inhibitor to that in its absence (fractional residual activity). YM and Y0 are the maximum and minimum possible values of the fractional residual proteinase activity. The difference between these two values is used to evaluate the inhibitor’s efficacy to reduce the residual enzyme activity under the assay condition.
Direct inhibition of human plasmin by sulfated small molecules. Direct inhibition of plasmin was measured using a chromogenic substrate hydrolysis assay on a microplate reader (FlexStation III, Molecular Devices), as reported earlier. Briefly, to each well of a 96-well microplate containing […]
Tween80 at 37 °C was added 5 µL potential inhibitor (or vehicle alone) and 5 µL enzyme. The final concentration of the enzyme was 20 nM. After 5 min incubation, 5 µL of 1 mM Spectrozyme PL was rapidly added and the residual enzyme activity was measured from the initial rate of increase in A405.
Relative residual enzyme activity (Y, activity in the presence of inhibitor to that in its absence) as a function of the concentration of SPGG derivative was fitted using logistic Equation (1) to obtain the potency (IC50), efficacy (ΔY) and Hill slope (HS) of inhibition. In this equation, YM and Y0 are the maximal and minimal values of Y.

thrombin = thrombin (Homo sapiens, UniProt P00734); assay: Direct inhibition of thrombin, chromogenic substrate (Spectrozyme TH) hydrolysis assay; conditions: pH 7.4, 37 °C; read-out: IC50 against thrombin
Description: (§1) The rationale behind targeting an allosteric site on plasmin was to achieve inhibition specificity over the closely related serine proteases. In contrast to active sites, allosteric sites are not as highly conserved and therefore present a powerful opportunity for discovering a selective modulator of enzyme function. […] Using appropriate small peptide-based chromogenic substrates, the fractional residual thrombin and factor Xa activities were measured under the physiological condition of pH 7.4 and 37 °C.
(§2) Briefly, to each well of a 96-well microplate containing 185 μL of 20–50 mM Tris-HCl buffer, pH 7.4, containing 100–150 mM NaCl, 0.1% PEG8000 and 0.02% Tween80 at either 25 °C (thrombin) or 37 °C (factor Xa) was added 5 μL of 10–20 mM inhibitor (or vehicle) and 5 μL of the enzyme. The final concentrations of the enzymes were 6 nM (thrombin) and 1.09 nM (factor Xa). After 10 min incubation, 5 μL 1.0 mM Spectrozyme TH or 2.5 mM Spectrozyme FXa, was rapidly added and the residual enzyme activity was measured from the initial rate of increase in A405. Relative residual enzyme activity (Y, activity in the presence of inhibitor to that in its absence) as a function of the concentration of inhibitor was measured.

human plasmin = biological target: T2, human plasmin (Homo sapiens, UniProt P00747); assay: Michaelis-Menten kinetics of Spectrozyme PL hydrolysis by human plasmin in presence of inhibitor; conditions: for mechanism of plasmin inhibition: Michaelis-Menten kinetics, pH 7.4, 37 °C
T2 construct: purchased Haematologic Technologies (Essex Junction, VT, USA)
Description: The initial rate of Spectrozyme PL hydrolysis by human plasmin (20 nM) was monitored from the linear increase in absorbance at 405 nm corresponding to less than 10% consumption of the substrate. […] The data were fitted by Michaelis-Menten Equation (2) to determine KM,app and VMAX: (2) V= VMAX [S]/KM+ [S] […]
Michaelis-Menten kinetics of Spectrozyme PL hydrolysis by plasmin in the presence of […]
The initial rate of Spectrozyme PL hydrolysis by human plasmin (20 nM) was monitored from the linear increase in absorbance at 405 nm corresponding to less than 10% consumption of the substrate. The initial rate was measured as a function of various concentrations of the substrate (0–400 μM) […]
50 mM Tris-HCl buffer, pH 7.4, 150 mM NaCl at 37 °C. The data were fitted by Michaelis-Menten Equation (2) to determine KM,app and VMAX. […]

factor Xa = factor Xa (Homo sapiens, UniProt P00742); assay: Direct inhibition of factor Xa, chromogenic substrate (Spectrozyme FXa) hydrolysis assay; conditions: for IC50: pH 7.4, 37 °C, read-out: IC50 against factor Xa
Description: as §1, §2

factor Xa, sequence (P00742 235-488 limits assumed): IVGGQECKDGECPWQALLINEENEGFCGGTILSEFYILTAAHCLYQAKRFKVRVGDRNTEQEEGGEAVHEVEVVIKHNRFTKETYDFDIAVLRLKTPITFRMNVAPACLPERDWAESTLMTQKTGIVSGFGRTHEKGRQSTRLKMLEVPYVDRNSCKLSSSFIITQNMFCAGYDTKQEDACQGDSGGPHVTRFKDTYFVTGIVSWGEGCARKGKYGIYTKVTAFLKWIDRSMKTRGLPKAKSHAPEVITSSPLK
factor Xa, sequence (P00742 41-179 partner limits assumed): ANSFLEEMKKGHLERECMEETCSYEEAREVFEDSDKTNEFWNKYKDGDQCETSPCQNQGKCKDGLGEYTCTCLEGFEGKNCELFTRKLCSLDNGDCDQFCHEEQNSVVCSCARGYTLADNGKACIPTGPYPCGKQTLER
T2 sequence (P00747 581-810 limits assumed): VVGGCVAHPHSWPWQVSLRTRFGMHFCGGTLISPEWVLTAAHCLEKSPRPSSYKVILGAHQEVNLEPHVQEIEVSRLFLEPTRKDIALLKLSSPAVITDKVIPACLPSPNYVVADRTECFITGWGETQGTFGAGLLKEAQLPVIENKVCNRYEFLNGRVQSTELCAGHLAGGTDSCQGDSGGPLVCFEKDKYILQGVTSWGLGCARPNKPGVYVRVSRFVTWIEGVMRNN
T2 sequence (P00747 97-580 partner limits assumed): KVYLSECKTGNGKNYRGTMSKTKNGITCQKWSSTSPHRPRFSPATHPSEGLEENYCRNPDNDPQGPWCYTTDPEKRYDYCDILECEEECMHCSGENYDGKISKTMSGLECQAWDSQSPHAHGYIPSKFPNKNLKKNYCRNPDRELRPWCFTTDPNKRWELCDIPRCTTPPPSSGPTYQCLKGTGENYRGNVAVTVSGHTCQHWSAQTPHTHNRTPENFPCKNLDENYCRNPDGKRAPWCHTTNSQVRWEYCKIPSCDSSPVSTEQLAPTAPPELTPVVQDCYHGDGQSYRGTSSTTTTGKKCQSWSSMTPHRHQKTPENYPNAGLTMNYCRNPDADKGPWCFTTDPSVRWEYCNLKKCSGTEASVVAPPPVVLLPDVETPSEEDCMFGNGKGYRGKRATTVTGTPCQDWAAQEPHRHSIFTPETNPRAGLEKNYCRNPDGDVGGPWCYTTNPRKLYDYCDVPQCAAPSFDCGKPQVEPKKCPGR
T1 sequence (P00747 581-810 limits assumed): as the sequence (P00747 581-810 limits assumed) above
T1 sequence (P00747 97-580 partner limits assumed): as the sequence (P00747 97-580 partner limits assumed) above

O=c1c(OS(=O)(=O)O)c(-c2ccc(OS(=O)(=O)O)c(OS(=O)(=O)O)c2)oc2cc(OS(=O)(=O)O)cc(OCc3cn(CCCCCCCCn4c(-c5ccc(OS(=O)(=O)O)cc5)nc5ccccc5c4=O)nn3)c12 [compound 32, 3-(8-(4-((2-(3,4-O,O-Disulfonato-phenyl)-3,7-O,O-disulfonato-4-oxo-4H-chromen-5-yloxy)methyl)-1H-1,2,3-triazol-1-yl)octyl)-2-(4-O-sulfonato-phenyl)quinazolin-4(3H)-one]
IC50 (human Lys-plasmin): 45 ± 2 µM | HS (Hill slope) (human Lys-plasmin; pH 7.4, 37 °C): 2.3 ± 0.7 | Emax (human Lys-plasmin; pH 7.4, read-out: ΔY% (efficacy, YM − Y0), logistic fit, pH 7.4, 37 °C): 105% | IC50 (thrombin): > 500 µM | mechanism of plasmin inhibition (human plasmin): noncompetitive inhibition; also recorded: allosteric inhibitor | decrease in VMAX (human plasmin; inhibitor 0 to 250 μM): 5.5 fold | VMAX of Spectrozyme PL hydrolysis (human plasmin; inhibitor 1 μM): 65.8 ± 2.1 mAU/min | VMAX of Spectrozyme PL hydrolysis (human plasmin; inhibitor 10 μM): 56.4 ± 2.3 mAU/min | VMAX of Spectrozyme PL hydrolysis (human plasmin; inhibitor 50 μM): 41.4 ± 1.6 mAU/min | VMAX of Spectrozyme PL hydrolysis (human plasmin; inhibitor 150 μM): 20.7 ± 1.1 mAU/min | VMAX of Spectrozyme PL hydrolysis (human plasmin; inhibitor 250 μM): 12.5 ± 1.3 mAU/min | selectivity index for plasmin over factor Xa (factor Xa): about 5 fold | IC50 (factor Xa): > 250 µM

O=c1c(OS(=O)(=O)O)c(-c2ccc(OS(=O)(=O)O)c(OS(=O)(=O)O)c2)oc2cc(OS(=O)(=O)O)cc(OCCCCOc3cc(OS(=O)(=O)O)cc4oc(-c5ccc(OS(=O)(=O)O)c(OS(=O)(=O)O)c5)c(OS(=O)(=O)O)c(=O)c34)c12 [compound 52, 5,5'-(Butane-1,4-diylbis(oxy))bis(2-(3,4-O,O-disulfonato-phenyl)-3,7-O,O-disulfonato-4H-chromen-4-one)]
IC50 (human Lys-plasmin): 76 ± 12 µM | HS (Hill slope) (human Lys-plasmin; pH 7.4, 37 °C): 1.0 ± 0.2 | Emax (human Lys-plasmin; pH 7.4, logistic fit, pH 7.4, 37 °C, read-out: ΔY% (efficacy, YM − Y0)): 72% | IC50 (thrombin): > 500 µM | mechanism of plasmin inhibition (human plasmin): uncompetitive inhibition | decrease in KM relative to absence of inhibitor (human plasmin; inhibitor 0 to 150 μM): approximately 3.5 fold | VMAX of Spectrozyme PL hydrolysis (human plasmin; inhibitor 15 μM): 52.9 ± 2.9 mAU/min | VMAX of Spectrozyme PL hydrolysis (human plasmin; inhibitor 30 μM): 37.0 ± 1.5 mAU/min | VMAX of Spectrozyme PL hydrolysis (human plasmin; inhibitor 75 μM): 34.8 ± 1.5 mAU/min | VMAX of Spectrozyme PL hydrolysis (human plasmin; inhibitor 150 μM): 26.4 ± 0.8 mAU/min | selectivity index for plasmin over factor Xa (factor Xa): about 5 fold | IC50 (factor Xa): > 250 µM
